From patent publication US8969552B2, “Arylsulfonylmethyl or arylsulfonamide substituted aromatic compounds suitable for treating disorders that respond to modulation of the dopamine D3 receptor” (AbbVie Deutschland GmbH & Co. KG, priority 2004, dated 2015)

Assays:
[1] = target: T1, human dopamine D3 receptors (Homo sapiens, UniProt P35462); assay: Dopamine D3 receptor binding, [125I]-iodosulpride displacement; conditions: for Ki: membranes of HEK-293 cells stably expressing human D3 receptor, 0.1 nM [125I]-iodosulpride, 25° C., 60 minutes; for Ki(D2)*/Ki(D3)*: selectivity ratio of receptor binding constants D2 versus D3
T1 construct: expressed in transfected cells; membranes
T1 sequence (P35462 whole entry): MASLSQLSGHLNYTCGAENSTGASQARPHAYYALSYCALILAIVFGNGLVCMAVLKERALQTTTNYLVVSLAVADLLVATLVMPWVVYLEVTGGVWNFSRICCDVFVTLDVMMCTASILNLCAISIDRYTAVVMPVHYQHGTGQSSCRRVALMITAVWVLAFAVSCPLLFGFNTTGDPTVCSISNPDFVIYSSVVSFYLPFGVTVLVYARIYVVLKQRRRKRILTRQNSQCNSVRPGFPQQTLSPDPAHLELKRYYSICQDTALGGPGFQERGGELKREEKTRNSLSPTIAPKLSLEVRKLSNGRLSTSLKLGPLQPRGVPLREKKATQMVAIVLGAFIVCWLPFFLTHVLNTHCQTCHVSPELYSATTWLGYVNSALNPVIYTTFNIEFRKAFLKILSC
Experimental: (§1) The substance to be tested was either dissolved in methanol/Chremophor® (BASF-AG) or in dimethyl sulfoxide and then diluted with water to the desired concentration.
(§2) Each assay mixture was run in triplicate.
The incubation buffer contained 50 mM tris, 120 mM NaCl, 5 mM KCl, 2 mM CaCl2, 2 mM MgCl2 and 0.1% bovine serum albumin, 10 μM quinolone and 0.1% ascorbic acid (prepared fresh daily). The buffer was adjusted to pH 7.4 with HCl.
(§3) Measurement and Analysis:
(§4) After having been incubated at 25° C. for 60 minutes, the assay mixtures were filtered through a Whatman GF/B glass fiber filter under vacuum using a cell collecting device. The filters were transferred to scintillation viols using a filter transfer system. After 4 ml of Ultima Gold® (Packard) have been added, the samples were shaken for one hour and the radioactivity was then counted in a Beta-Counter (Packard, Tricarb 2000 or 2200CA). The cpm values were converted into dpm using a standard quench series and the program belonging to the instrument.
(§5) The inhibition curves were analyzed by means of iterative nonlinear regression analysis using the Statistical Analysis System (SAS) which is similar to the “LIGAND” program described by Munson and Rodbard.
(§6) The results of the receptro binding studies are expressed as receptor binding constants Ki(D2) and Ki(D3), respectively, as herein before described, and given in table 2.

[2] = target: T2, human dopamine D2L receptors (long isoform) (Homo sapiens, UniProt P14416); assay: Dopamine D2L receptor binding, [125I] iodospiperone displacement; conditions: membranes of HEK-293 cells stably expressing human D2L receptor; 0.01 nM [125I] iodospiperone; 25° C., 60 minutes; read-out: Ki(D2)*
T2 construct: expressed in transfected cells; membranes
T2 sequence (P14416 whole entry, canonical isoform): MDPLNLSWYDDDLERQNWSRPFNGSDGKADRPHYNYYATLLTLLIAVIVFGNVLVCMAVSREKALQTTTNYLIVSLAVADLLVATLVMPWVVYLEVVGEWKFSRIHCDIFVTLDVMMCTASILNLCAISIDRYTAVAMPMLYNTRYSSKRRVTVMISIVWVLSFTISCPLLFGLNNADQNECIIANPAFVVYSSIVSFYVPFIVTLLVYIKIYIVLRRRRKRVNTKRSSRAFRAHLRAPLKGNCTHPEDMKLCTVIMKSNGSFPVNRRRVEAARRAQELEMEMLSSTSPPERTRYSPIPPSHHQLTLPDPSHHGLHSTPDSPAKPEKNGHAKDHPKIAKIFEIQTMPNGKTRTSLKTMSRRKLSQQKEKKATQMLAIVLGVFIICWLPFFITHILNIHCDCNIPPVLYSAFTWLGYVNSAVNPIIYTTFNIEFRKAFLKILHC
Experimental: as §1, §2
The incubation buffer contained 50 mM tris, 120 mM NaCl, 5 mM KCl, 2 mM CaCl2, 2 mM MgCl2 and 0.1% bovine serum albumin. The buffer was adjusted to pH 7.4 with HCl.
as §3, §4, §5, §6

Ki [1] [µM]	Ki(D2)*/Ki(D3)* [1]	Ki [2] [µM]	SMILES
0.0113	42	0.476	CCCNC1CCc2cc(NS(=O)(=O)c3ccc(C(C)C)cc3)cnc2C1 (stereo not drawn) [Example 15, 4-Isopropyl-N-(7-propylamino-5,6,7,8-tetrahydro-quinolin-3-yl)-benzenesulfonamide]
0.0025	21	0.051	C=CCN1CCC[C@H]2c3ccc(NS(=O)(=O)c4ccc(C(C)C)cc4)cc3CC[C@@H]21 [Example 19, N-((4aS,10bS)-4-Allyl-1,2,3,4,4a,5,6,10b-octahydro-benzo[f]quinolin-8-yl)-4-isopropylbenzenesulfonamide]
0.0075	45	0.339	C=CCN1CCC[C@H]2c3cc(NS(=O)(=O)c4ccc(C(C)C)cc4)ccc3CC[C@@H]21 [Example 20, N-((4aS,10bS)-4-Allyl-1,2,3,4,4a,5,6,10b-octahydro-benzo[f]quinolin-9-yl)-4-isopropylbenzenesulfonamide]
0.00037	4	0.00139	CCCN(CCC)[C@@H]1CCc2cc(NS(=O)(=O)c3ccc(C(C)C)cc3)ccc2C1.Cl [Example 29, N—((R)-6-Dipropylamino-5,6,7,8-tetrahydro-naphthalen-2-yl)-4-isopropyl-benzenesulfonamide, hydrochloride]
0.00039	29	0.0113	CCCN(CCC)[C@H]1CCc2cc(NS(=O)(=O)c3ccc(C(C)C)cc3)ccc2C1.Cl [Example 30, N—((S)-6-Dipropylamino-5,6,7,8-tetrahydro-naphthalen-2-yl)-4-isopropylbenzenesulfonamide, hydrochloride]
0.0304	406	12.3	CCCNC1COc2cc(NS(=O)(=O)c3ccc(C(C)C)cc3)cnc2C1 (stereo not drawn) [Example 35, 4-Isopropyl-N-(3-propylamino-3,4-dihydro-2H-pyrano[3,2-b]pyridin-7-yl)benzenesulfonamide]
0.00481	151	0.727	CCCN[C@H]1CCc2cc(NS(=O)(=O)c3ccc(-c4cnco4)s3)ccc2C1 [Example 38, 5-Oxazol-5-yl-thiophene-2-sulfonic acid ((S)-6-propylamino-5,6,7,8-tetrahydro-naphthalen-2-yl)-amide]
0.0122	101	1.23	CCCN[C@H]1CCc2cc(NS(=O)(=O)c3ccc([C@@H](C)C(F)(F)F)cc3)ccc2C1 [Example 41, N—((S)-6-Propylamino-5,6,7,8-tetrahydro-naphthalen-2-yl)-4-((R)-2,2,2-trifluoro-1-methylethyl)-benzenesulfonamide]
0.00195	263	0.514	CCCN[C@H]1CCc2cc(NS(=O)(=O)c3ccc([C@H](C)C(F)(F)F)cc3)ccc2C1 [Example 42, N—((S)-6-Propylamino-5,6,7,8-tetrahydro-naphthalen-2-yl)-4-((S)-2,2,2-trifluoro-1-methylethyl)-benzenesulfonamide]
0.0307	113	3.48	CCCN[C@H]1CCc2cc(NS(=O)(=O)c3ccc(-c4ccon4)s3)ccc2C1 [Example 43, 5-Isoxazol-3-yl-thiophene-2-sulfonic acid ((S)-6-propylamino-5,6,7,8-tetrahydro-naphthalen-2-yl)-amide]
0.00062	416	0.258	CCCN[C@H]1CCc2cc(NS(=O)(=O)c3ccc(N4CC[C@@H](F)C4)cc3)ccc2C1 [Example 44, 4-((R)-3-Fluoro-pyrrolidin-1-yl)-N—((S)-6-propylamino-5,6,7,8-tetrahydro-naphthalen-2-yl)benzenesulfonamide]
0.0139	94	1.31	CCCN[C@H]1CCc2cc(NS(=O)(=O)c3ccc(N4CCOCC4)cc3)ccc2C1 [Example 45, 4-Morpholin-4-yl-N—((S)-6-propylamino-5,6,7,8-tetrahydro-naphthalen-2-yl)benzenesulfonamide]
0.00862	84	0.728	CCCN[C@H]1CCc2cc(NS(=O)(=O)c3ccc(-n4cccn4)cc3)ccc2C1.Cl [Example 76, N—((S)-6-Propylamino-5,6,7,8-tetrahydro-naphthalen-2-yl)-4-pyrazol-1-ylbenzenesulfonamide, hydrochloride]
0.00165	304	0.501	CCCN[C@H]1CCc2cc(NS(=O)(=O)c3ccc(C(C)C(F)F)cc3)ccc2C1.Cl (stereo partly drawn) [Example 77, 4-(2,2-Difluoro-1-methyl-ethyl)-N—((S)-6-propylamino-5,6,7,8-tetrahydro-naphthalen-2-yl)benzenesulfonamide, hydrochloride]
